Data published in US20080255174A1, “Hydroalcoholic Extract Of Erythrina Mulungu, Pharmaceutical Compositions And Processes For Producing These Substances” (priority 2004, published 2008).

Experiments:
Swiss mice [1] = assay: elevated T maze test (inhibitory avoidance and escape from the open arms); type: in vivo; design: Escape: unit not given here; details: for Escape / Inhibitory avoidances E1 / Inhibitory avoidances E2 / Inhibitory avoidances E3 / Inhibitory avoidances E4 / Inhibitory avoidances LB (basal latency): acute, average ± EPM; for Escape: departure time from open arm; for Inhibitory avoidances E1 / Inhibitory avoidances E2 / Inhibitory avoidances E3 / Inhibitory avoidances E4 / Inhibitory avoidances LB (basal latency): latency, maximum 300 seconds
Procedure: (§1) Swiss mice weighing 25-35 g from the central animal laboratory of the Sao Paulo State University (UNESP/Araraquara) were used. The animals were housed in groups of 10-12 animals, in polypropylene cages with wood shavings on the floor, with food and water available ad […]]. The animal laboratory was maintained under constant temperature 22±1° C., the lighting was controlled in 12-hour cycles from 7:00 am to 7:00 pm and the humidity was kept at between 50-60%. The pharmacological evaluation was performed with extract, standard drug and vehicle. Accordingly, lyophilized hydroalcoholic extract (50, 100, 200 and 400 mg/kg) was used, in addition to F2 (3, 6, 10, 17 and 30 mg/kg) and the alkaloids erythrartine, erythravine and 11-OH-erythravine (3 and 10 mg/kg), administered via oral intake by gavage. The standard drug used was Diazepam (DZP) in a dose of 2 mg/kg (via intraperitoneal, i.p). All solutions were prepared on the day of the experiment with sodium […] 0.9% and sonicated for 15 minutes and the diazepam in a solution of sodium […] 0.9% and Tween-80. The experiments were carried out between 11:00 am and 5:00 pm, and the experiment apparatus and procedures are described ahead. The elevated T maze is made with transparent glass walls and wooden floor and consists of a closed arm (30×5×15 cm) perpendicularly linked to two open arms (30×5×0.25 cm), raised at 38.5 cm above the floor by a wooden support. In this test, five consecutive measures of inhibitory avoidance were performed (basal latency, avoidances 1, 2, 3 and 4) and one measure of escape from the open arms, with intervals of 30 seconds between each attempt. In the avoidance measures, the animals were placed in the distal section of the closed arm and the exit latency of this arm, on all four paws, towards the open arm was timed. In the escape measure, the animals were placed in the extremity of the right-hand open arm and the departure time from this arm was measured. The animals' maximum length of stay in the arms of the maze during these measures was 300 seconds. The apparatus was cleaned with ethanol 20% after testing each animal. In order to avoid false positives or negatives, immediately after testing in the elevated T maze, the animals were submitted to the locomotive activity test in the arena. The apparatus consists of a white polypropylene box with a rectangular base (40×48 cm), surrounded by 30 cm high walls. The floor is subdivided into 30 squares (8×8 cm). In this test, the animals were placed in the center of the box and their activity was video recorded for five minutes, for subsequent analysis of the number of crossings of the quadrant areas and number of stretch-attend postures (WALSH and CUMMINS, 1976).
(§2) All the results from the animal models were initially submitted to the Levene homogeneity test. The heterogeneous results were converted into a logarithmic scale and later analyzed statistically. The results obtained from the elevated T maze were submitted to a two-way analysis of variance (ANOVA), with treatment being an independent factor and attempts being a dependent factor. […] The results obtained with the arena were submitted to a one-way ANOVA followed by the Duncan post hoc test. Amounts p≦0.05 were considered to be significant results.

Swiss mice [2] = assay: locomotive activity test in the arena; type: in vivo; details: for Crossings / Stretch-attend postures: acute, number in five minutes, average ± EPM
Procedure: as §1, §2

[3] = test system: serotonergic 3 receptor (5-HT3); details: in vitro test (ELSELÈ et al., 1993); cited from earlier work

Question: What does the source list for `CN1C(=O)CN=C(c2ccccc2)c2cc(Cl)ccc21` [DZP, Diazepam, reference compound]?
Answer: Escape (Swiss mice [1]; DZP 2 mg/kg i.p.): 19.0 ± 3.2; Inhibitory avoidances E1 (Swiss mice [1]; DZP 2 mg/kg i.p.): 15.3 ± 3.8; Inhibitory avoidances E2 (Swiss mice [1]; DZP 2 mg/kg i.p.): 12.25 ± 1.6; Inhibitory avoidances E3 (Swiss mice [1]; DZP 2 mg/kg i.p.): 22.3 ± 7.7; Inhibitory avoidances E4 (Swiss mice [1]; DZP 2 mg/kg i.p.): 24.2 ± 7.3; Inhibitory avoidances LB (basal latency) (Swiss mice [1]; DZP 2 mg/kg i.p.): 24.6 ± 4.1; Crossings (Swiss mice [2]; DZP 2 mg/kg i.p.): 154.6 ± 19.48; Stretch-attend postures (Swiss mice [2]; DZP 2 mg/kg i.p.): 19.13 ± 2.03

Question: Which results are given for `COc1cc2c(cc1OC)[C@]13C[C@@H](O)C=CC1=CCN3C[C@H]2O` [11-OH-erythravine, 11-hydroxy-erythravine]?
Answer: Escape (Swiss mice [1]; 3 mg/kg oral by gavage): 21.5 ± 3.7; Inhibitory avoidances E1 (Swiss mice [1]; 3 mg/kg oral by gavage): 41.8 ± 14.2; Inhibitory avoidances E2 (Swiss mice [1]; 3 mg/kg oral by gavage): 96.0 ± 34.4; Inhibitory avoidances E3 (Swiss mice [1]; 3 mg/kg oral by gavage): 132.3 ± 39.7; Inhibitory avoidances E4 (Swiss mice [1]; 3 mg/kg oral by gavage): 194.4 ± 39.5; Inhibitory avoidances LB (basal latency) (Swiss mice [1]; 3 mg/kg oral by gavage): 30.7 ± 5.8; Escape (Swiss mice [1]; 10 mg/kg oral by gavage): 26.8 ± 4.8; Inhibitory avoidances E1 (Swiss mice [1]; 10 mg/kg oral by gavage): 30.0 ± 6.1; Inhibitory avoidances E2 (Swiss mice [1]; 10 mg/kg oral by gavage): 54.0 ± 21.1; Inhibitory avoidances E3 (Swiss mice [1]; 10 mg/kg oral by gavage): 66.6 ± 30.3; Inhibitory avoidances E4 (Swiss mice [1]; 10 mg/kg oral by gavage): 94.8 ± 31.7; Inhibitory avoidances LB (basal latency) (Swiss mice [1]; 10 mg/kg oral by gavage): 22.6 ± 3.5; performance in the inhibitory avoidance task (Swiss mice [1]; acute treatment, 3 and 10 mg/kg oral, result in words): impaired the performance of the animals in the inhibitory avoidance task; Crossings (Swiss mice [2]; 3 mg/kg oral by gavage): 158.5 ± 7.12; Stretch-attend postures (Swiss mice [2]; 3 mg/kg oral by gavage): 27.7 ± 3.20; Crossings (Swiss mice [2]; 10 mg/kg oral by gavage): 126.5 ± 12.71; Stretch-attend postures (Swiss mice [2]; 10 mg/kg oral by gavage): 22.4 ± 3.50; locomotive activity (number of crossings and stretch-attend postures) (Swiss mice [2]; 3 and 10 mg/kg oral, one-way ANOVA, result in words): none of the doses of 11-OH-erythravine used altered the locomotive activity

Question: Which “action at 5-HT3 receptor” value [3] does the source give for `CO[C@H]1CC=C2CCN3CCC4=C(CC(=O)OC4)[C@]23C1` [DHBE, dihydro-β-erythroidine] here?
Answer: Its value is “serotonergic 3 antagonist receptor (5-HT3)”.
